These are literature values, as cited in patent US6645392B2, “Method of removing wrinkles from fabric” (The Procter & Gamble Company, priority 2000, dated 2003).

Structures are written as SMILES.

Conditions in one data set: not given
On to `ClC=CC[N+]12CN3CN(CN(C3)C1)C2.[Cl-]` [Dowicil 200, 1-(3-Chlorallyl)-3,5,7-triaza-1-azoniaadamantane chloride], for which the “solubility in water” value was “freely soluble in water”.

Staying with this data set, now noted: in water.
Consider `[Na+].[O-][n+]1ccccc1[S-]` [sodium pyrithione], for which the water solubility result is on record as “about 50%”. For `O=[N+]([O-])C(Br)(CO)CO` [Bronopol, 2-bromo-2-nitropropane-1,3-diol], the water solubility result is recorded as “about 25%”.

Turning to `CC(C)(O)C(Cl)(Cl)Cl` [chlorobutanol, 1,1,1-Trichloro-2-methylpropan-2-ol], the water solubility result is listed as “about 0.8%”.

Take `CC1(C)C(=O)N(CO)C(=O)N1CO` [DMDM hydantoin, 1,3-bis(hydroxymethyl)-5,5-dimethyl-2,4-imidazolidinedione]: the water solubility entry was “more than 50%”. In the case of `[H]/N=C(\N/C(=N/[H])NCCCCCCNC(=N)NC(=N)Nc1ccc(Cl)cc1)Nc1ccc(Cl)cc1` [chlorhexidine digluconate, 1,1′-hexamethylene bis(5-(p-chlorophenyl)biguanide), reference compound], the water solubility entry is recorded as “about 70%”. Take `[H]/N=C(\N/C(=N/[H])NCCCCCCNC(=N)NC(=N)Nc1ccc(Cl)cc1)Nc1ccc(Cl)cc1` [chlorhexidine diacetate, 1,1′-hexamethylene bis(5-(p-chlorophenyl)biguanide), reference compound]: the water solubility result is “about 1.8%”.

For the compound `OCc1ccccc1` [benzyl alcohol], the water solubility entry was “about 4%”. With `O=[N+]([O-])C1(Br)COCOC1` [Bronidox L, 5-bromo-5-nitro-1,3-dioxane], the water solubility entry is “about 0.46%”. Consider `OCCOc1ccccc1` [2-phenoxyethanol], for which the water solubility result is given as “about 2.67%”. Take `OCCc1ccccc1` [2-phenylethanol]: the water solubility result is reported as “about 2%”.
